Among the data in ChEMBL document CHEMBL1148319, “A molecular basis for the selectivity of thiadiazole urea inhibitors with stromelysin-1 and gelatinase-A from generalized born molecular dynamics simulations” (J Med Chem, 2004) are Ki values, retold here.

Structures are written as SMILES.

One may read the Ki as a dissociation constant, usually derived from enzyme kinetics or from competition with a known ligand. Read a high Ki as a looser hold on the target.

The target in the experiment is 72 kDa type IV collagenase (Homo sapiens, UniProt P08253).
Sequence of 72 kDa type IV collagenase (P08253 whole entry): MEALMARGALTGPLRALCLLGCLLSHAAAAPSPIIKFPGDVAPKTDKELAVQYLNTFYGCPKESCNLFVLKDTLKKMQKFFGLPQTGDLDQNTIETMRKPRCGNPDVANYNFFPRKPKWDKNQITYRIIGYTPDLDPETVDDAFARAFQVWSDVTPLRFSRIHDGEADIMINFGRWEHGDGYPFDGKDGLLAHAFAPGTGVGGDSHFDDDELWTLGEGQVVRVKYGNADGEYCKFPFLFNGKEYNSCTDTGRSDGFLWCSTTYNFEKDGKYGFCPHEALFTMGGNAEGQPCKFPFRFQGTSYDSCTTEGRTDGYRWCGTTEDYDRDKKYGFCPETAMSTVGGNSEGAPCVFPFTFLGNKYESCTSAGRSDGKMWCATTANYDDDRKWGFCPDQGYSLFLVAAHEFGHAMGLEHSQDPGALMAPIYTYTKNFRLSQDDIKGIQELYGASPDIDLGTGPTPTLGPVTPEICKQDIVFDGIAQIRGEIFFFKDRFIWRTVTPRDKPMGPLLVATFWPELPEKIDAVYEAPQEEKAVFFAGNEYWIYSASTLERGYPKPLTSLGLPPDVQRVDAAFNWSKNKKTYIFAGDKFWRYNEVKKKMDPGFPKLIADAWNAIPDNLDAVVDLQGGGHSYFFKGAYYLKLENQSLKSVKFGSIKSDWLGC
Description: Inhibition of human Matrix metalloprotease-2 (gelatinase-A)
On to `CNC(=O)[C@H](Cc1ccccc1)NC(=O)Nc1nnc(S)s1`, for which the Ki was 3 µM.

For `CNC(=O)[C@H](CO)NC(=O)Nc1n[nH]c(=S)s1`, the Ki was more than 200 µM. `CNC(=O)[C@H](Cc1c(F)c(F)c(F)c(F)c1F)NC(=O)Nc1nnc(S)s1` returned an inhibition constant Ki of 3 µM. `NC(=O)[C@H](Cc1ccccc1)NC(=O)Nc1nnc(S)s1`: the Ki is more than 200 µM.

On to `CNC(=O)CNC(=O)Nc1n[nH]c(=S)s1`, for which the Ki was more than 100 µM. In the case of `CN(C)C(=O)[C@H](Cc1ccccc1)NC(=O)Nc1nnc(S)s1`, the Ki is 226 µM.
